Results on 18 compounds are retold here after patent publication US10246453B2, “Benzenesulfonamide compounds and their use as therapeutic agents” (Xenon Pharmaceuticals Inc., priority 2016, dated 2019).

In data set [1] the target is T1, NaV1.1 (Homo sapiens (Human), UniProt P35498). Nature of the data set: Sodium Influx Assay (Flux), NaV1.1. It is filed as cell-based. The settings on record: Trex HEK293 cells, ANG2 dye; arithmetic mean.
For a further data set, the target named is NaV1.5 (Homo sapiens (Human), UniProt Q14524). Nature of the data set: Sodium Influx Assay (Flux), NaV1.5. The settings on record: read-out: Flux NaV1.5 IC50; Trex HEK293 cells, ANG2 dye; arithmetic mean.
Data set [2] has as its target T2, NaV1.6 (Homo sapiens (Human), UniProt Q9UQD0). Nature of the data set: Sodium Influx Assay (Flux), NaV1.6. As to conditions: read-out: Flux NaV1.6 IC50; Trex HEK293 cells, ANG2 dye; arithmetic mean.
In data set [3] the target is T2, NaV1.6. Nature of the data set: Electrophysiological Assay (EP), patch voltage clamp, NaV1.6. As to conditions: HEK-293 cells, whole-cell patch clamp, inactivated state; arithmetic mean. The data set is classed as cell-based. (In general: Patch clamp records ionic current or voltage across a cell membrane.)
In data set [4] the target is T1, NaV1.1. Nature of the data set: Electrophysiological Assay (EP), patch voltage clamp, NaV1.1. It is filed as cell-based. As to conditions: HEK-293 cells, whole-cell patch clamp, inactivated state; arithmetic mean. The method, then:
Sodium currents were measured using the patch clamp technique in the whole-cell configuration using either a PatchXpress automated voltage clamp or manually using an Axopatch 200B (Axon Instruments) or Model 2400 (A-M systems) amplifier.
In some studies, the external sodium was reduced by equimolar replacement with choline. […] All recordings were performed at ambient temperature in a bath chamber with a volume of 150 μL. Control sodium currents were measured in 0.5% DMSO. Controls and representative compounds of the invention were applied to the recording chamber through a 4-pinch or 8-pinch valve bath perfusion system manufactured by ALA Scientific Instruments.
Series resistance compensation was applied (60-80%). […] All statistics in this study are given as mean±SD.
The membrane potential was maintained at a voltage where inactivation of the channel is complete. The voltage is then stepped back to a very negative (Vhold=−150 mV) voltage for 20 ms and then a test pulse is applied to quantify the compound block. […] The percent decrease in sodium current following wash-on of compound was taken as the percent block of sodium channels.

Counter-ions that a name gives are not always drawn. Where only a bound is given, the exact number is not on record here.

T2 sequence (Q9UQD0 whole entry): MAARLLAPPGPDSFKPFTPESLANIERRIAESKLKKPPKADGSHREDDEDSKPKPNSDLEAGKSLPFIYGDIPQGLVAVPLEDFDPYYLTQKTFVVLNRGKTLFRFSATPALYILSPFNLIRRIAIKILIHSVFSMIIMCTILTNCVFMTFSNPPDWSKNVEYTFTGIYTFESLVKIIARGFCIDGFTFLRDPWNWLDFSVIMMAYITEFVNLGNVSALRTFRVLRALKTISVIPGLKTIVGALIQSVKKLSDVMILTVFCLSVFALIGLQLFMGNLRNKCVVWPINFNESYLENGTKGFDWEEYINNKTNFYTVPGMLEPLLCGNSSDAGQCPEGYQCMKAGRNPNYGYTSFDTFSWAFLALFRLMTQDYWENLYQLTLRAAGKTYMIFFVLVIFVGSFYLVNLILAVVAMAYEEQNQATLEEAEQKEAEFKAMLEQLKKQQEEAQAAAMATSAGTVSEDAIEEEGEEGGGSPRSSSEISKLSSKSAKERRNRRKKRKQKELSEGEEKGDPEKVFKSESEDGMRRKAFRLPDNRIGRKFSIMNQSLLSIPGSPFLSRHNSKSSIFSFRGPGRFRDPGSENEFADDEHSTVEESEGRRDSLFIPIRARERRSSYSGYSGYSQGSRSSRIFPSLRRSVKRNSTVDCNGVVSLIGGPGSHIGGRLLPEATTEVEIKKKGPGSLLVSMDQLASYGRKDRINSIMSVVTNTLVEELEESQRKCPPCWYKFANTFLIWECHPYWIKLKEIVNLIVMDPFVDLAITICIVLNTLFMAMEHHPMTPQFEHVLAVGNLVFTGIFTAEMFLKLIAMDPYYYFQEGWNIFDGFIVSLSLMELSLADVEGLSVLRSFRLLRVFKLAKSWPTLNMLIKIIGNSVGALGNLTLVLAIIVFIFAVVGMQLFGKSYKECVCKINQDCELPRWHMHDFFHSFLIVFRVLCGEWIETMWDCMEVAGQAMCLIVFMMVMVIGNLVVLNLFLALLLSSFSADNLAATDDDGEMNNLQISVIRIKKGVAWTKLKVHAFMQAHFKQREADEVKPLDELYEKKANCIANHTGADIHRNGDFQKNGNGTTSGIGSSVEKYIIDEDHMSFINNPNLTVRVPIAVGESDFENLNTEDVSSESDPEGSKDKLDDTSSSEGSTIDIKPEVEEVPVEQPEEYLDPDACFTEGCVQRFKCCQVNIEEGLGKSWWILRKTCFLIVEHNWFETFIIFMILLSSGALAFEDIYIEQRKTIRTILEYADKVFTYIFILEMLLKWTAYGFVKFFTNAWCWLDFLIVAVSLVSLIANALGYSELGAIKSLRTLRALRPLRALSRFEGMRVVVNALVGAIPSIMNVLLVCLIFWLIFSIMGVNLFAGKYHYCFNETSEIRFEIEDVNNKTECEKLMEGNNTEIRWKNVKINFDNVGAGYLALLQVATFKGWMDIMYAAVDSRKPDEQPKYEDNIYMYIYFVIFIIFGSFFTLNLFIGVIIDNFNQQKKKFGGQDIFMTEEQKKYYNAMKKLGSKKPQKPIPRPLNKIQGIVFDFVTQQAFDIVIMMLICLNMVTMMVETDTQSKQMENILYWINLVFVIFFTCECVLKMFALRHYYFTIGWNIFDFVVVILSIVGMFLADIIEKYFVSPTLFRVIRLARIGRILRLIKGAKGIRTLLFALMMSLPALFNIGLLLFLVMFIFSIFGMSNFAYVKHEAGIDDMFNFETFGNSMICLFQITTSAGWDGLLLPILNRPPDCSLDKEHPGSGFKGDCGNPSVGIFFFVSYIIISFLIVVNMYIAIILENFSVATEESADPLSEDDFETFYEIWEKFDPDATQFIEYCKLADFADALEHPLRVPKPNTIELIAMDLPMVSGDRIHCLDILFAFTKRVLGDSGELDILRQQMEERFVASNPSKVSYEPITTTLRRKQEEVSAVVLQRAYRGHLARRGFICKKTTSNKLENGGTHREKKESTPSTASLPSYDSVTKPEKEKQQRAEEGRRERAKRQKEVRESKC
NaV1.5, sequence (Q14524 other isoform, or with tags, fused parts or gaps): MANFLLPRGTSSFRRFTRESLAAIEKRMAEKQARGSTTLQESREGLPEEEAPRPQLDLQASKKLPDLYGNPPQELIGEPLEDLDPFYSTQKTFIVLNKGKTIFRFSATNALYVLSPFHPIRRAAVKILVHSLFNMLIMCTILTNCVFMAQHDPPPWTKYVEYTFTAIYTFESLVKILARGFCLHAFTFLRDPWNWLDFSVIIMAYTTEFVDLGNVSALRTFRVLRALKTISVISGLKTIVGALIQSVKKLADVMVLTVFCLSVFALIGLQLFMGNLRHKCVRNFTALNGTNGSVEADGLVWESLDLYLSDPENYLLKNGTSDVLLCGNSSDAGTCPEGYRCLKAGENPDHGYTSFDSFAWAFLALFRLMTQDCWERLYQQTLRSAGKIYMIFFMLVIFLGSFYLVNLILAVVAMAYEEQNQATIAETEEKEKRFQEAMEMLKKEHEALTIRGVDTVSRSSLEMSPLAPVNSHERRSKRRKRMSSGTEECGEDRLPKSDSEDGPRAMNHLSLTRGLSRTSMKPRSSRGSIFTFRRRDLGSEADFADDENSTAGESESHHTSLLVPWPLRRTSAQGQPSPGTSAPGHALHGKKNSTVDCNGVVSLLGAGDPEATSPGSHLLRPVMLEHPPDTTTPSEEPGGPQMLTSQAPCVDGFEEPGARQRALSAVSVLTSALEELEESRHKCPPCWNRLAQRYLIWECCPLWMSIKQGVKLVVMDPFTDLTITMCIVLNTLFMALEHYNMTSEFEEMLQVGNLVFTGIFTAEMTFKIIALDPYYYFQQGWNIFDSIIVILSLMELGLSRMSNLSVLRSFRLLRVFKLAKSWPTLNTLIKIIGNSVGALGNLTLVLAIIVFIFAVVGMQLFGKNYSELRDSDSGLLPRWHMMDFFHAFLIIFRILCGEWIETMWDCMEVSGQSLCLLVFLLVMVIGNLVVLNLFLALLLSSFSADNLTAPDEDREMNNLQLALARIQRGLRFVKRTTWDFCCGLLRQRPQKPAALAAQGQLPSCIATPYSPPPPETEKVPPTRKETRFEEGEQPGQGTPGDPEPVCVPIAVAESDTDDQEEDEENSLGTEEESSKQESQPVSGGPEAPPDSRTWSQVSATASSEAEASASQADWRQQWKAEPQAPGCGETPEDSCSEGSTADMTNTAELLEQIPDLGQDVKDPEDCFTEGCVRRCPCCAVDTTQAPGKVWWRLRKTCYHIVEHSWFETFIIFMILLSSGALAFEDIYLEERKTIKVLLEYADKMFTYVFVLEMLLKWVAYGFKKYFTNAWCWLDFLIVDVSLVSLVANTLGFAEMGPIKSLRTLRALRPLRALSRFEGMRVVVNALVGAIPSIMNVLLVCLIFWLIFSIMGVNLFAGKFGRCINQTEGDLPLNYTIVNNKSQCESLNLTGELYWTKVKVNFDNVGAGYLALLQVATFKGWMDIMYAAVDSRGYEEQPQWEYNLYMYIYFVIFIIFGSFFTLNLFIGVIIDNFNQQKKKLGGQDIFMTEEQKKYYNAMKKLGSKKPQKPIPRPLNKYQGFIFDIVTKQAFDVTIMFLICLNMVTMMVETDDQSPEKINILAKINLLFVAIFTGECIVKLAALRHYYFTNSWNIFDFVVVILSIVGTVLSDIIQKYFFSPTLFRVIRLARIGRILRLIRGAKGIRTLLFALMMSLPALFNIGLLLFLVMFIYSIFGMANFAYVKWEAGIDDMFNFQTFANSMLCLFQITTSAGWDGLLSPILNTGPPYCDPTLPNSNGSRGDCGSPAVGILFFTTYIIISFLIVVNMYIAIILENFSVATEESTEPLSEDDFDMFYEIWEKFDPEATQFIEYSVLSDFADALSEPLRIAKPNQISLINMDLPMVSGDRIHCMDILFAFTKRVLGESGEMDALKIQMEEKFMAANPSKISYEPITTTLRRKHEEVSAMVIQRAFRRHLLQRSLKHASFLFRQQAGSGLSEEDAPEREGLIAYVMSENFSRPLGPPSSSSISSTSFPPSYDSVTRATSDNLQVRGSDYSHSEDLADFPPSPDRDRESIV

`COc1ccccc1CN1CC[C@H](N(C)c2cc(F)c(S(=O)(=O)Nc3cscn3)cc2Cl)C1` [Example 206, (S)-5-chloro-2-fluoro-4-((1-(2-methoxybenzyl)pyrrolidin-3-yl)(methyl)amino)-N-(thiazol-4-yl)benzenesulfonamide]: the concentration for half-maximal inhibition (IC50) against NaV1.1 [1] was 22.5 µM; on NaV1.5, above 30 µM; at NaV1.6 [2] it was 0.532 µM; on NaV1.6 [3] it was 0.462 µM; against NaV1.1 [4] it was above 10 µM.
In the same order, the values of `C[C@@H](c1ccccc1)N1CCC(Oc2ccc(S(=O)(=O)Nc3ncns3)cc2Cl)CC1` [Example 221, (S)-3-chloro-4-((1-(1-phenylethyl)piperidin-4-yl)oxy)-N-(1,2,4-thiadiazol-5-yl)benzenesulfonamide 2,2,2-trifluoroacetate] are 10.8 µM, above 30 µM, 0.127 µM, 0.098 µM and above 10 µM.
In the same order, the values of `C[C@H](c1ccccc1)N1CCC(Oc2cc(F)c(S(=O)(=O)Nc3cscn3)cc2Cl)CC1` [Example 222, (R)-5-chloro-2-fluoro-4-((1-(1-phenylethyl)piperidin-4-yl)oxy)-N-(thiazol-4-yl)benzenesulfonamide 2,2,2-trifluoroacetate] are 27.9 µM, 19.4 µM, 0.959 µM, 0.278 µM and above 10 µM.
For `C[C@@]1(Nc2ccc(S(=O)(=O)Nc3cscn3)cc2Cl)CCN(Cc2ccccc2)C1` [Example 225, (R)-4-((1-benzyl-3-methylpyrrolidin-3-yl)amino)-3-chloro-N-(thiazol-4-yl)benzenesulfonamide formate] the same measures were 5.45 µM, 5.55 µM, 3.9 µM, 5.31 µM and above 10 µM.
With `C[C@]1(Nc2ccc(S(=O)(=O)Nc3cscn3)cc2Cl)CCN(Cc2ccccc2)C1` [Example 226, (S)-4-((1-benzyl-3-methylpyrrolidin-3-yl)amino)-3-chloro-N-(thiazol-4-yl)benzenesulfonamide formate], the concentration for half-maximal inhibition (IC50) is 11.5 µM on NaV1.1 [1]; 9.04 µM at NaV1.5; 2.43 µM at NaV1.6 [2]; 3.08 µM against NaV1.6 [3]; above 10 µM against NaV1.1 [4].
With `CC[C@@H](c1ccccc1)N1CC[C@H](N(C)c2cc(F)c(S(=O)(=O)Nc3cscn3)cc2Cl)C1` [Example 242, 5-chloro-2-fluoro-4-(methyl((S)-1-((S)-1-phenylpropyl)pyrrolidin-3-yl)amino)-N-(thiazol-4-yl)benzenesulfonamide], the IC50 at NaV1.1 [1] is 5.38 µM; on NaV1.5, 9.96 µM; on NaV1.6 [2], 0.65 µM; at NaV1.6 [3] it was 0.668 µM; against NaV1.1 [4], above 10 µM.
For `CN(c1cc(F)c(S(=O)(=O)Nc2cscn2)cc1Cl)[C@H]1CCN([C@@H]2CCc3ccccc32)C1` [Example 246, 5-chloro-4-(((S)-1-((R)-2,3-dihydro-1H-inden-1-yl)pyrrolidin-3-yl)(methyl)amino)-2-fluoro-N-(thiazol-4-yl)benzenesulfonamide 2,2,2-trifluoroacetate] the same measures were 8.51 µM, 18.7 µM, 0.629 µM, 1.03 µM and above 10 µM.
In the same order, the values of `CN(c1cc(F)c(S(=O)(=O)Nc2cscn2)cc1Cl)[C@H]1CCN([C@H]2CCc3ccccc32)C1` [Example 249, 5-chloro-4-(((S)-1-((S)-2,3-dihydro-1H-inden-1-yl)pyrrolidin-3-yl)(methyl)amino)-2-fluoro-N-(thiazol-4-yl)benzenesulfonamide 2,2,2-trifluoroacetate] are 11.2 µM, 17.4 µM, 0.285 µM, 0.11 µM and above 10 µM.
Turning to `C[C@H](c1ccccc1)N1CC[C@H](N(C)c2ccc(S(=O)(=O)Nc3cscn3)cc2Cl)C1` [Example 251, 3-chloro-4-(methyl((S)-1-((R)-1-phenylethyl)pyrrolidin-3-yl)amino)-N-(thiazol-4-yl)benzenesulfonamide 2,2,2-trifluoroacetate], the IC50 on NaV1.1 [1] was 7.45 µM; at NaV1.5 it was 7.32 µM; on NaV1.6 [2] it was 1.51 µM; against NaV1.6 [3] it was 0.412 µM; at NaV1.1 [4], above 10 µM.
For `CN(c1ccc(S(=O)(=O)Nc2cscn2)cc1Cl)[C@H]1CCN(Cc2cccc(C(F)F)c2)C1` [Example 253, (S)-3-chloro-4-((1-(3-(difluoromethyl)benzyl)pyrrolidin-3-yl)(methyl)amino)-N-(thiazol-4-yl)benzenesulfonamide formate] the same measures were 2.67 µM, 2.52 µM, 0.756 µM, 0.491 µM and 4.76 µM.
In the same order, the values of `CN(c1cc(F)c(S(=O)(=O)Nc2cscn2)cc1Cl)[C@H]1CCN(C(C)(C)c2ccccc2)C1` [Example 257, (S)-5-chloro-2-fluoro-4-(methyl(1-(2-phenylpropan-2-yl)pyrrolidin-3-yl)amino)-N-(thiazol-4-yl)benzenesulfonamide formate] are 10.3 µM, 10.6 µM, 0.701 µM, 0.17 µM and above 10 µM.
In the same order, the values of `CN(c1cc(F)c(S(=O)(=O)Nc2cscn2)cc1Cl)[C@H]1CCN(C2(c3ccccc3)CC2)C1` [Example 259, (S)-5-chloro-2-fluoro-4-(methyl(1-(1-phenylcyclopropyl)pyrrolidin-3-yl)amino)-N-(thiazol-4-yl)benzenesulfonamide 2,2,2-trifluoroacetate] are 3.77 µM, 5.81 µM, 1.58 µM, 0.44 µM and 3.52 µM.
Turning to `CN(c1cc(F)c(S(=O)(=O)Nc2cccc(F)n2)cc1Cl)[C@H]1CCN(C(C)(C)c2ccccc2)C1` [Example 260, (S)-5-chloro-2-fluoro-N-(6-fluoropyridin-2-yl)-4-(methyl(1-(2-phenylpropan-2-yl)pyrrolidin-3-yl)amino)benzenesulfonamide 2,2,2-trifluoroacetate], the half-maximal inhibitory concentration (IC50) was 7.35 µM at NaV1.1 [1]; 10.1 µM at NaV1.5; 1.68 µM on NaV1.6 [2]; 0.842 µM against NaV1.6 [3]; 9.64 µM on NaV1.1 [4].
For `CCN(c1cc(F)c(S(=O)(=O)Nc2cscn2)cc1Cl)[C@H]1CCN(Cc2ccccc2)C1` [Example 263, (S)-4-((1-benzylpyrrolidin-3-yl)(ethyl)amino)-5-chloro-2-fluoro-N-(thiazol-4-yl)benzenesulfonamide] the same measures were 4.44 µM, 19.1 µM, 3.1 µM, 3.81 µM and above 10 µM.
For `Cc1c(O[C@H]2CCN(Cc3ccccc3)C2)cc(F)c(S(=O)(=O)Nc2cscn2)c1F` [Example 269, (S)-4-((1-benzylpyrrolidin-3-yl)oxy)-2,6-difluoro-3-methyl-N-(thiazol-4-yl)benzenesulfonamide hydrochloride] the same measures were above 30 µM, above 30 µM, 0.647 µM, 0.329 µM and above 10 µM.
In the same order, the values of `Cc1c(N(C)[C@H]2CCN(Cc3ccccc3)C2)cc(F)c(S(=O)(=O)Nc2ccsn2)c1F` [Example 279, (S)-4-((1-benzylpyrrolidin-3-yl)(methyl)amino)-2,6-difluoro-N-(isothiazol-3-yl)-3-methylbenzenesulfonamide 2,2,2-trifluoroacetate] are 21.2 µM, above 30 µM, 0.064 µM, 0.011 µM and above 10 µM.
On to `C[C@H](c1ccccc1)N1CCC(Oc2cc(F)c(S(=O)(=O)Nc3cscn3)c(F)c2Cl)CC1` [Example 283, (R)-3-chloro-2,6-difluoro-4-((1-(1-phenylethyl)piperidin-4-yl)oxy)-N-(thiazol-4-yl)benzenesulfonamide 2,2,2-trifluoroacetate formate], for which the IC50 is above 30 µM against NaV1.1 [1]; above 30 µM at NaV1.5; 0.067 µM at NaV1.6 [2]; 0.037 µM on NaV1.6 [3]; above 10 µM on NaV1.1 [4].
Consider `C[C@H](c1ccccc1)N1CCC(Oc2ccc(S(=O)(=O)Nc3ccncn3)cc2Cl)CC1` [Example 300, (R)-3-chloro-4-((1-(1-phenylethyl)piperidin-4-yl)oxy)-N-(pyrimidin-4-yl)benzenesulfonamide], for which the half-inhibitory concentration (IC50) against NaV1.1 [1] was above 30 µM; at NaV1.5, above 30 µM; on NaV1.6 [2], 1.07 µM; against NaV1.6 [3], 0.972 µM; on NaV1.1 [4] it was above 10 µM.

By IC50 is commonly meant the concentration that inhibits the measured activity by half.
